Laboratory results from patent US8846908B2, “Tricyclic carbamate JAK inhibitors” (Rigel Pharmaceuticals, Inc., priority 2008, dated 2014).

molecular target: BaF3 V617F cells (Homo sapiens, UniProt O60674, V617F, cells depend on it); assay: Proliferation assay, BaF3 V617F cells (Cell Titer-Glo); assay type: cell-based, mouse; conditions: proliferation for 72 hours at 37° C., stated to show ability to inhibit JAK2 activity, read-out: IC50 (the source's name)
Method: BaF3 V617F cells are maintained and plated in RPMI with 10% FBS. Plating density for these cells is 1×10^5 cells/mL.
The cells were resuspended in a corresponding medium at a required cell density (see above). 100μ of cell suspension was added to each well of a flat bottom 96 well white plate. The compound was serially diluted in DMSO from 5 mM in 3-fold dilutions, and then diluted 1:250 in the RPMI 1640 medium containing 5% FBS and pen/strep. 100 μL of resulting 2× compound solution was added per well in duplicate and the cells were allowed to proliferate for 72 hours at 37° C.
Proliferation was measured using Cell Titer-Glo. The substrate was thawed and allowed to come to room temperature. After removal of top 100 μL of medium from each well, 100 μL of the premixed Cell Titer-Glo reagent was added to each well. The plates were mixed on an orbital shaker for three minutes to induce lysis and incubated at ambient temperature for an additional five minutes to allow the signal to equilibrate. The Luminescence was read on the Wallac Plate Reader.
The results of the ability of the compounds of the invention to inhibit JAK2 activity, when tested in the above assay, are shown in the following Table 2 wherein the level of activity (i.e., the IC50) for each compound is indicated in Table 2. The compound numbers in Table 2 refers to the compounds disclosed herein as being prepared by the methods disclosed herein.

BaF3 V617F cells, sequence (O60674 whole entry V617F): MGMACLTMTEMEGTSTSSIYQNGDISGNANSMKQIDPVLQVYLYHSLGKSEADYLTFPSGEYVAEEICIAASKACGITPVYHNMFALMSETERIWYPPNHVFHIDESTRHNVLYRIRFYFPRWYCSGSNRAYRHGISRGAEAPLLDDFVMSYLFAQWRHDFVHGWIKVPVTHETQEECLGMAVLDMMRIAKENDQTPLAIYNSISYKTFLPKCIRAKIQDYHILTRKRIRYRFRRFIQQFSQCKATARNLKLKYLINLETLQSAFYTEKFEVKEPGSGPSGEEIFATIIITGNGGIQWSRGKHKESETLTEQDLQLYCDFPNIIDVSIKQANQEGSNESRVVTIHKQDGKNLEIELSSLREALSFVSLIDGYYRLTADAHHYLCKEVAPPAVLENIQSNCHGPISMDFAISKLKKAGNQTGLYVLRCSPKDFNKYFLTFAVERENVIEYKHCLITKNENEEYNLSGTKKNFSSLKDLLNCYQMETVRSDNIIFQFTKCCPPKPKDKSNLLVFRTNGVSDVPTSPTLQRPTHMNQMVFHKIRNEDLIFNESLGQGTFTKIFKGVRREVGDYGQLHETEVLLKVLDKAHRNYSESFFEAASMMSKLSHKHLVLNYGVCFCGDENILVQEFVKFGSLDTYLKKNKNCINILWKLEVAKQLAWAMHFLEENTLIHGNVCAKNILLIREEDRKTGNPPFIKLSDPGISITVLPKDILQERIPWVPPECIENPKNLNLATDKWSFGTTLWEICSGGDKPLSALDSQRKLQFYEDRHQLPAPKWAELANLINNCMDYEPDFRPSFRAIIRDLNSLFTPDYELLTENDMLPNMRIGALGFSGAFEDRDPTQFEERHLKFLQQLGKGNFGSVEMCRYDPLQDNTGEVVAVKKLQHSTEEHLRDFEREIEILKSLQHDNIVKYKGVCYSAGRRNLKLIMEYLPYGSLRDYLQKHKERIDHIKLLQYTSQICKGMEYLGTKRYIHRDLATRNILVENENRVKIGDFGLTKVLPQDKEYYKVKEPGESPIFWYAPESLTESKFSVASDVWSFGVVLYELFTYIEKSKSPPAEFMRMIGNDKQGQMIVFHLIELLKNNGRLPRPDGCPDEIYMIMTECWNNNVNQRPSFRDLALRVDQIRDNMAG

How did the GI50 turn out when `O=C1N[C@@H]2c3cc(Nc4ncc(Cl)c(Nc5ccc(CCNS(=O)(=O)C6CC6)cc5)n4)ccc3C[C@@H]2O1` [Compound 1, 5-Chloro-N4-[4-[2-[N-(cyclopropylsulfonyl)amino]ethyl]phenyl]-N2-[(3aR,8aS)-2-oxo-3,3a,8,8a-tetrahydro-2H-indeno[1,2-d]oxazol-5-yl]-2,4-pyrimidinediamine] was run?
Its GI50 is 1000 to 5000 nM.

Which GI50 does the source give for `Cc1cnc(Nc2ccc3c(c2)[C@H]2NC(=O)O[C@H]2C3)nc1Nc1ccc2c(c1)N(C)C(=O)C(C)(C)O2` [Compound 2, 5-Methyl-N2-[(3aR,8aS)-2-oxo-3,3a,8,8a-tetrahydro-2H-indeno[1,2-d]oxazol-5-yl]-N4-(2,2,4-trimethyl-3-oxo-benz[1,4]oxazin-6-yl)-2,4-pyrimidinediamine] here?
The GI50 was < 250 nM.

For `Cc1cnc(Nc2ccc3c(c2)[C@H]2NC(=O)O[C@H]2C3)nc1Nc1ccc2c(c1)N(C)C(=O)CS2` [Compound 4, 5-Methyl-N4-(4-methyl-3-oxo-2H-benz[1,4]thiazin-6-yl)-N2-[(3aR,8aS)-2-oxo-3,3a,8,8a-tetrahydro-2H-indeno[1,2-d]oxazol-5-yl]-2,4-pyrimidinediamine], which GI50 is on record?
The GI50 was 500 to 1000 nM.

How did the GI50 turn out when `Cc1cnc(Nc2ccc3c(c2)[C@H]2NC(=O)OC2C3)nc1Nc1ccc2c(n1)N(C)C(=O)C(C)(C)O2` (stereo partly drawn) [Compound 5, 5-Methyl-N2-[(3aR,8aS)-2-oxo-3,3a,8,8a-tetrahydro-2H-indeno[1,2-d]oxazol-5-yl]-N4-(2,2,4-trimethyl-3-oxo-5-pyrido[1,4]oxazin-6-yl)-2,4-pyrimidinediamine] was run?
Its GI50 is < 250 nM.

Which GI50 does the source give for `CCCN1C(=O)COc2ccc(Nc3nc(Nc4ccc5c(c4)[C@H]4NC(=O)O[C@H]4C5)ncc3C)cc21` [Compound 6, 5-Methyl-N4-(4-propyl-3-oxo-2H-benz[1,4]oxazin-6-yl)-N2-[(3aR,8aS)-2-oxo-3,3a,8,8a-tetrahydro-2H-indeno[1,2-d]oxazol-5-yl]-2,4-pyrimidinediamine] here?
Its GI50 is 250 to 500 nM.

For `Cc1cnc(Nc2ccc3c(c2)[C@H]2NC(=O)O[C@H]2C3)nc1Nc1ccc2c(c1)N(C)C(=O)C(C)(C)S2` [Compound 7, 5-Methyl-N2-[(3aR,8aS)-2-oxo-3,3a,8,8a-tetrahydro-2H-indeno[1,2-d]oxazol-5-yl]-N4-(2,2,4-trimethyl-3-oxo-benz[1,4]thiazin-6-yl)-2,4-pyrimidinediamine], which GI50 is on record?
The GI50 was < 250 nM.

`O=C1N[C@@H]2c3cc(Nc4ncc(Cl)c(Nc5ccc(CNS(=O)(=O)C6CC6)cc5)n4)ccc3C[C@@H]2O1` [Compound 8, 5-Chloro-N4-[4-[[N-(cyclopropylsulfonyl)amino]methyl]phenyl]-N2-[(3aR,8aS)-2-oxo-3,3a,8,8a-tetrahydro-2H-indeno[1,2-d]oxazol-5-yl]-2,4-pyrimidinediamine] was tested. Which GI50 did it give?
Its GI50 is < 250 nM.

Which GI50 does the source give for `Cc1cnc(Nc2ccc3c(c2)[C@@H]2NC(=O)O[C@@H]2C3)nc1Nc1ccc2c(c1)N(C)C(=O)C(C)(C)O2` [Compound 9, 5-Methyl-N2-[(3aS,8aR)-2-oxo-3,3a,8,8a-tetrahydro-2H-indeno[1,2-d]oxazol-5-yl]-N4-(2,2,4-trimethyl-3-oxo-benz[1,4]oxazin-6-yl)-2,4-pyrimidinediamine] here?
Its GI50 is 250 to 500 nM.

Which GI50 does the source give for `CN1C(=O)C(C)(C)Oc2ccc(Nc3nc(Nc4ccc5c(c4)[C@@H]4NC(=O)O[C@@H]4C5)ncc3Cl)cc21` [Compound 10, 5-Chloro-N2-[(3aS,8aR)-2-oxo-3,3a,8,8a-tetrahydro-2H-indeno[1,2-d]oxazol-5-yl]-N4-(2,2,4-trimethyl-3-oxo-benz[1,4]oxazin-6-yl)-2,4-pyrimidinediamine] here?
The GI50 was < 250 nM.

With `CCN1C(=O)C(C)(C)Oc2ccc(Nc3nc(Nc4ccc5c(c4)[C@@H]4NC(=O)O[C@@H]4C5)ncc3C)cc21` [Compound 11, N4-(2,2-Dimethyl-4-ethyl-3-oxo-benz[1,4]oxazin-6-yl)-5-methyl-N2-[(3aS,8aR)-2-oxo-3,3a,8,8a-tetrahydro-2H-indeno[1,2-d]oxazol-5-yl]-2,4-pyrimidinediamine] as the molecule, how does the GI50 read?
The GI50 was 250 to 500 nM.

For `CCN1C(=O)C(C)(C)Oc2ccc(Nc3nc(Nc4ccc5c(c4)[C@@H]4NC(=O)O[C@@H]4C5)ncc3Cl)cc21` [Compound 12, 5-Chloro-N4-(2,2-dimethyl-4-ethyl-3-oxo-benz[1,4]oxazin-6-yl)-N2-[(3aS,8aR)-2-oxo-3,3a,8,8a-tetrahydro-2H-indeno[1,2-d]oxazol-5-yl]-2,4-pyrimidinediamine], which GI50 is on record?
Its GI50 is 250 to 500 nM.

With `Cc1cnc(Nc2ccc3c(c2)[C@@H]2NC(=O)O[C@@H]2C3)nc1Nc1ccc2c(c1)NC(=O)C(C)(C)O2` [Compound 13, N4-(2,2-Dimethyl-3-oxo-4H-benz[1,4]oxazin-6-yl)-5-methyl-N2-[(3aS,8aR)-2-oxo-3,3a,8,8a-tetrahydro-2H-indeno[1,2-d]oxazol-5-yl]-2,4-pyrimidinediamine] as the molecule, how does the GI50 read?
The GI50 was 1000 to 5000 nM.

With `CC(C)(C)NS(=O)(=O)c1cccc(Nc2nc(Nc3ccc4c(c3)[C@@H]3NC(=O)O[C@@H]3C4)ncc2Cl)c1` [Compound 14, 5-Chloro-N4-[3-[[(1,1-dimethylethyl)amino]sulfonyl]phenyl]-N2-[(3aS,8aR)-2-oxo-3,3a,8,8a-tetrahydro-2H-indeno[1,2-d]oxazol-5-yl]-2,4-pyrimidinediamine] as the molecule, how does the GI50 read?
The GI50 was 500 to 1000 nM.

Which GI50 does the source give for `Cc1cnc(Nc2ccc3c(c2)[C@@H]2NC(=O)O[C@@H]2C3)nc1Nc1ccc(CNS(=O)(=O)C2CC2)cc1` [Compound 15, N4-[4-[[N-(Cyclopropylsulfonyl)amino]methyl]phenyl]-5-methyl-N2-[(3aS,8aR)-2-oxo-3,3a,8,8a-tetrahydro-2H-indeno[1,2-d]oxazol-5-yl]-2,4-pyrimidinediamine] here?
The GI50 was 1000 to 5000 nM.

How did the GI50 turn out when `O=C1N[C@H]2c3cc(Nc4ncc(Cl)c(Nc5ccc(CNS(=O)(=O)C6CC6)cc5)n4)ccc3C[C@H]2O1` [Compound 16, 5-Chloro-N4-[4-[[N-(cyclopropylsulfonyl)amino]methyl]phenyl]-N2-[(3aS,8aR)-2-oxo-3,3a,8,8a-tetrahydro-2H-indeno[1,2-d]oxazol-5-yl]-2,4-pyrimidinediamine] was run?
The GI50 was 1000 to 5000 nM.

For `Cc1cc(CNS(=O)(=O)C2CC2)ccc1Nc1nc(Nc2ccc3c(c2)[C@@H]2NC(=O)O[C@@H]2C3)ncc1Cl` [Compound 17, 5-Chloro-N4-[4-[[N-(cyclopropylsulfonyl)amino]methyl]-2-methylphenyl]-N2-[(3aS,8aR)-2-oxo-3,3a,8,8a-tetrahydro-2H-indeno[1,2-d]oxazol-5-yl]-2,4-pyrimidinediamine], which GI50 is on record?
Its GI50 is 1000 to 5000 nM.

Which GI50 does the source give for `Cc1cc(CNS(=O)(=O)C2CC2)ccc1Nc1nc(Nc2ccc3c(c2)[C@@H]2NC(=O)OC2C3)ncc1C` (some centres unmarked) [Compound 18] here?
Its GI50 is 1000 to 5000 nM.

`O=C1N[C@H]2c3cc(Nc4ncc(Cl)c(Nc5cccc6c5CCC6)n4)ccc3CC2O1` (some centres unmarked) [Compound 19] was tested. Which GI50 did it give?
Its GI50 is ≥ 5000 nM.

Which GI50 does the source give for `Cc1cnc(Nc2ccc3c(c2)[C@@H]2NC(=O)O[C@@H]2C3)nc1Nc1cccc2c1CCC2` [Compound 20, N4-(Indan-4-yl]-5-methyl-N2-[(3aS,8aR)-2-oxo-3,3a,8,8a-tetrahydro-2H-indeno[1,2-d]oxazol-5-yl]-2,4-pyrimidinediamine] here?
The GI50 was < 250 nM.

With `O=C1N[C@H]2c3cc(Nc4ncc(Cl)c(Nc5cccc6c5CCCC6)n4)ccc3C[C@H]2O1` [Compound 21, 5-Chloro-N2-[(3aS,8aR)-2-oxo-3,3a,8,8a-tetrahydro-2H-indeno[1,2-d]oxazol-5-yl]-N4-(5,6,7,8-tetrahydronaphthalen-1-yl)2,4-pyrimidinediamine] as the molecule, how does the GI50 read?
The GI50 was 500 to 1000 nM.

`Cc1cnc(Nc2ccc3c(c2)[C@@H]2NC(=O)O[C@@H]2C3)nc1Nc1cccc2c1CCCC2` [Compound 22, 5-Methyl-N2-[(3aS,8aR)-2-oxo-3,3a,8,8a-tetrahydro-2H-indeno[1,2-d]oxazol-5-yl]-N4-(5,6,7,8-tetrahydronaphthalen-1-yl)-2,4-pyrimidinediamine] was tested. Which GI50 did it give?
The GI50 was 250 to 500 nM.

For `O=C1N[C@H]2c3cc(Nc4ncc(Cl)c(Nc5cccc6c5OCCO6)n4)ccc3C[C@H]2O1` [Compound 23, N4-(1,4-Benzodioxan-5-yl)-5-chloro-N2-[(3aS,8aR)-2-oxo-3,3a,8,8a-tetrahydro-2H-indeno[1,2-d]oxazol-5-yl]-2,4-pyrimidinediamine], which GI50 is on record?
The GI50 was 1000 to 5000 nM.

Which GI50 does the source give for `Cc1cnc(Nc2ccc3c(c2)[C@@H]2NC(=O)O[C@@H]2C3)nc1Nc1cccc2c1OCCO2` [Compound 24, N4-(1,4-Benzodioxan-5-yl)-5-methyl-N2-[(3aS,8aR)-2-oxo-3,3a,8,8a-tetrahydro-2H-indeno[1,2-d]oxazol-5-yl]-2,4-pyrimidinediamine] here?
Its GI50 is < 250 nM.

How did the GI50 turn out when `O=C1N[C@H]2c3cc(Nc4ncc(Cl)c(Nc5cccc6c5OC(F)(F)O6)n4)ccc3C[C@H]2O1` [Compound 25, 5-Chloro-N4-(2,2-difluoro-1,3-benzodioxol-4-yl)-N2-[(3aS,8aR)-2-oxo-3,3a,8,8a-tetrahydro-2H-indeno[1,2-d]oxazol-5-yl]-2,4-pyrimidinediamine] was run?
Its GI50 is ≥ 5000 nM.

How did the GI50 turn out when `O=C1N[C@@H]2c3cc(Nc4ncc(F)c(Nc5ccc(OCc6ccccn6)cc5)n4)ccc3C[C@@H]2O1` [Compound 26, 5-Fluoro-N2-[(3aR,8aS)-2-oxo-3,3a,8,8a-tetrahydro-2H-indeno[1,2-d]oxazol-5-yl]-N4-[4-(pyridin-2-ylmethoxy)phenyl]-2,4-pyrimidinediamine] was run?
The GI50 was 1000 to 5000 nM.

`Cc1cnc(Nc2ccc3c(c2)[C@H]2NC(=O)O[C@H]2C3)nc1Nc1ccc(OCc2ccccn2)cc1` [Compound 27, 5-Methyl-N2-[(3aR,8aS)-2-oxo-3,3a,8,8a-tetrahydro-2H-indeno[1,2-d]oxazol-5-yl]-N4-[4-(pyridin-2-ylmethoxy)phenyl]-2,4-pyrimidinediamine] was tested. Which GI50 did it give?
Its GI50 is 250 to 500 nM.
